{
  "source": "patent US10087181B2",
  "about": "“Compound as WNT signaling inhibitor, composition, and use thereof” (CUREGENIX, INC., priority 2012, dated 2018)",
  "data": [
    {"system": "WNT pathway", "assay": "WNT pathway reporter gene assay (NIH3T3 TCF-Luc cells co-cultured with 293 WNT3a cells)", "assay_type": "cell-based", "conditions": "Mus musculus, concentration reducing luminescence intensity by 50%, TCF luciferase, 16 hours co-culture", "experimental": "NIH3T3 mouse fibroblast cells (American Type Culture Collection, Manassas, Va.) were transfected with a plasmid containing a luciferase gene driven by 5 copies of TCF elements. Stale cells selected with 1 μg/mL of Zeocin (Gibco/Invitrogen, Carlsbad, Calif.) are cultured in Dulbecco's modified Eagle's medium (Invitrogen, Carlsbad, Calif.) supplemented with 10% FBS (Invitrogen), 50 unit/mL penicillin and 50 μg/mL of streptomycin (Invitrogen) at 37° C. with 5% CO2 in air atmosphere.\nAfter 16 hours, the firefly luciferase activities are measured with the Steady-Glo™ Luciferase Assay System (Promega). The cells were treated with different concentrations of compounds of this invention during the co-culture. […] To normalize for cell quantity and viability, CellTiter Glo assay is next performed in a duplicate plate.", "units": {"IC50": "nM"}, "values": [
      {"smiles": "Cc1cc(-c2ccc(CNc3nccc4cc(-c5ccnc(C)c5)ncc34)cc2)ccn1", "note": "[Compound 1, N-(4-(2-methylpyridin-4-yl)benzyl)-6-(2-methylpyridin-4-yl)-2,7-naphthyridin-1-amine]", "IC50": "< 3"},
      {"smiles": "Cc1cc(-c2cc3ccnc(NCc4ccc(-c5ccnc(F)c5)c(F)c4)c3cn2)ccn1", "note": "[Compound 28]", "IC50": "< 3"},
      {"smiles": "Cc1cc(-c2ncc(CNc3nccc4cc(-c5cnccn5)ccc34)cc2C)ccn1", "note": "[Compound 70]", "IC50": "< 3"},
      {"smiles": "Cc1cc(-c2ccc(CNc3nccc4cc(-c5cnccn5)ncc34)cc2)ccn1", "note": "[Compound 35]", "IC50": "< 3"},
      {"smiles": "Cc1cc(-c2cc3ccnc(NCc4ccc(-c5ccnc(C)c5)c(C)c4)c3cn2)ccn1", "note": "[Compound 2, N-(3-methyl-4-(2-methylpyridin-4-yl)benzyl)-6-(2-methylpyridin-4-yl)-2,7-naphthyridin-1-amine]", "IC50": "< 3"}
    ]}
  ]
}
